{"source": "patent US12589093B2", "about": "“Plasma kallikrein inhibitors and methods of use thereof in ocular disorders” (BIOCRYST PHARMACEUTICALS, INC., priority 2019, dated 2026)", "key": {"[1]": {"molecular_target": "T1, human plasma kallikrein (Homo sapiens, UniProt P03952)", "T1 construct": "purchased Enzyme Research Laboratories, South Bend, IN, USA", "T1 sequence (P03952 391-638 limits assumed)": "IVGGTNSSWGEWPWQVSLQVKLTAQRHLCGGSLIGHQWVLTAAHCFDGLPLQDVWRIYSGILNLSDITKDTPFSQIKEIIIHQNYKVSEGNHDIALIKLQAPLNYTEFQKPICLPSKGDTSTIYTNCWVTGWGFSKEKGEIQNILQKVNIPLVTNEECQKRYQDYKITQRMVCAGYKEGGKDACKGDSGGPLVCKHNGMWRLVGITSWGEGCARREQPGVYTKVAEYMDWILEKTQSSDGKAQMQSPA", "T1 sequence (P03952 20-390 partner limits assumed)": "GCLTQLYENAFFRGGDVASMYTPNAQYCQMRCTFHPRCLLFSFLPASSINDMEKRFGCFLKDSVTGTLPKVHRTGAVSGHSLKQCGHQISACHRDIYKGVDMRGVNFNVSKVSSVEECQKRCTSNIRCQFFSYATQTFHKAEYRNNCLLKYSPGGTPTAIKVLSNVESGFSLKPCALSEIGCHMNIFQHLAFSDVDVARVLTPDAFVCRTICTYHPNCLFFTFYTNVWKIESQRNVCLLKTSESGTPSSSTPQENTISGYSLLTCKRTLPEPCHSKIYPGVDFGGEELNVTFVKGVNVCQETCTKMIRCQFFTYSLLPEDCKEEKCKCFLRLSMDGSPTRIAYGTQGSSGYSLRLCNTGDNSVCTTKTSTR", "assay": "Plasma kallikrein activity, chromogenic substrate S2302", "format": "biochemical", "description": "The effect of compounds of the disclosure on human plasma kallikrein activity is determined by the method described in Zhang et al. (Medicinal Chemistry, 2006, No. 6, p 547). Briefly, plasma kallikrein activity is determined using a chromogenic substrate (S2302). In these experiments, 2 nM plasma kallikrein (Enzyme Research Laboratories, South Bend, IN, USA) is incubated with 80 μM S2302 (H-D-Pro-Phe-Arg-p-nitroaniline) in the absence or presence of increasing concentrations of compounds of the disclosure in a final volume of 200 μL Tris-HCI buffer (200 mM NaCl; 2.5 mM CaCl2; 50 mM Tris-HCl, pH 7.8). Assay reactions were initiated by adding enzyme into pre-mixed solution of inhibitors and substrate (enzyme initiated reaction) After incubation at 30° C., the activity of plasma kallikrein is measured as a change in absorbance at OD 405 nm (for example using a BioTek PowerWave X340 Microplate Reader, Winooski, VT, USA or equivalent device). Data are analyzed using appropriate software (for example, Four Parameter Logistic Curve, SigmaPlot software, Systat Software, Inc., San Jose, CA, USA or equivalent)."}, "[2]": {"assay": "Aqueous solubility (deionized water)", "format": "physicochemical", "conditions": "room temperature"}, "[3]": {"assay": "Partition coefficient (octanol-phosphate buffer)", "format": "physicochemical", "conditions": "pH 7.4"}, "[4]": {"test_system": "Dutch belted rabbits", "assay": "Ocular tolerability after suprachoroidal (SCS) injection", "format": "in vivo", "description": "(§1) Dutch belted rabbits were used in the study.\n(§2) 100 μL of the suspension was administered bilaterally to the suprachoroidal space of the eye, at a dose of 0.5 mg/eye. Two rabbits (4 eyes) were treated per time point, except at day 28, when 3 rabbits were treated. Plasma was collected at 3 hours, 1 day, 3 days, 7 days, 10 days, 14 days, 21 days, 28 days, 56 days, and 84 days post-dose. Aqueous humor, vitreous humor, peripheral retina, peripheral sclera/choroid/RPE, central retina, and central sclera/choroid/RPE punch punch tissues were collected at 1 day, 7 days, 14 days, 28 days, 56 days and 84 days post-dose. Ocular examinations and intraocular pressure (IOP) were also assessed, anterior and posterior segments, at 1 day, 7 days, 14 days, 28 days, 56 days, and 84 days post-dose. Redness, chemosis, discharge, opacity, aqueous flare, cellular flare, vitreous flare, retinal vasculature, retinal and choroidal pathology were assessed at those time points."}, "[5]": {"assay": "Systemic (plasma) PK after SCS injection", "format": "in vivo, Dutch belted rabbits", "conditions": "SCS 0.5 mg/eye, FIG. 5", "description": "as §1, §2"}, "[6]": {"assay": "pKa by UV-metric method", "format": "physicochemical", "conditions": "read-out: pKa Values (second value)"}, "[7]": {"assay": "Ocular PK (tissue drug levels) after SCS injection", "format": "in vivo, Dutch belted rabbits", "description": "as §1, §2"}}, "data": [{"compound": "C=Cc1cc(C(=O)Nc2ccc(C(=N)N)cc2)c(-c2ccc(C(=O)NCC3CC3)nc2C(=O)O)cc1OC.Cl", "note": "[BCX4161, avoralstat]", "values": [{"measurement": "inhibition of human plasma kallikrein activity (in words)", "setting": "[1]", "result": "potent and highly specific inhibitor"}, {"measurement": "solubility", "setting": "[2]", "result": "20 to 40", "unit": "µg/mL"}, {"measurement": "Partition Coefficient (octanol-phosphate buffer), log D7.4", "setting": "[3]", "result": "log D7.4 = 1.9"}, {"measurement": "tolerability", "setting": "[4]; 0.5% suspension, single SCS injection, 0.5 mg/eye", "result": "well tolerated"}, {"measurement": "ocular exam score", "setting": "[4]; all observations, SCS 0.5 mg/eye", "result": 0}, {"measurement": "conjunctival redness and chemosis", "setting": "[4]; day 1 post-dose, SCS 0.5 mg/eye", "result": "Mild"}, {"measurement": "adverse events", "setting": "[4]; days 7, 14, 28, 56, or 84 post-dose, SCS 0.5 mg/eye", "result": "No adverse events"}, {"measurement": "systemic exposure", "setting": "[5]", "result": "minimal to no systemic exposure"}, {"measurement": "pKa", "setting": "[6]", "result": 11.4}, {"measurement": "duration of highly favorable PK profile", "setting": "[7]; 0.5% suspension, single SCS injection", "result": "at least 3 months"}, {"measurement": "drug levels in central and peripheral RPE/choroid/sclera", "setting": "[7]; SCS 0.5 mg/eye, FIG. 1", "result": "High drug levels"}, {"measurement": "drug levels in central and peripheral retina", "setting": "[7]; SCS 0.5 mg/eye, FIG. 2", "result": "High levels"}, {"measurement": "drug levels in the aqueous humor", "setting": "[7]; SCS 0.5 mg/eye, FIG. 4C", "result": "low levels"}, {"measurement": "drug levels in the vitreous humor", "setting": "[7]; SCS 0.5 mg/eye, FIGS. 4A and 4B", "result": "moderate to low levels"}, {"measurement": "time high drug levels present in central and peripheral RPE/choroid/sclera", "setting": "[7]; after SCS injection 0.5 mg/eye", "result": "≥ 84", "unit": "days"}, {"measurement": "time high drug levels present in central and peripheral retina", "setting": "[7]; after SCS injection 0.5 mg/eye", "result": "≥ 84", "unit": "days"}]}]}
